Source: patent US9149038B2, “4-amino-6-(heterocyclic)picolinates and 6-amino-2-(heterocyclic)pyrimidine-4-carboxylates and their use as herbicides” (Dow AgroSciences LLC, priority 2013, dated 2015)
Where two headings read alike, the source gives them in different places.

Key:
[1] = test system: Key Grass and Sedge Weeds as well as Grass Crops; test: Post-Emergent Test II: postemergent herbicidal activity, visual rating after 14 d (Table 8); format: in vivo; conditions: post-emergence, 336 h; for pest or weed control at 35 g/ha: 35 g ai/ha; for pest or weed control at 70 g/ha: 70 g ai/ha; for pest or weed control at 140 g/ha: 140 g ai/ha
In short: (§1)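 Track-sprayed young seedlings (first/second true leaf) at 187 L/ha across a 2-fold rate series from the high rate down to 1/16×. Kept in greenhouse at 23-29° C day, subirrigated. Injury rated by eye after 14 d, 0 = no injury, 100 = complete kill.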

[2] = test system: Key Broadleaf Weed and Crop Species; test: Post-Emergent Test II: postemergent herbicidal activity, visual rating after 14 d (Table 7); format: in vivo; conditions: post-emergence, 336 h; for pest or weed control at 35 g/ha: 35 g ai/ha; for pest or weed control at 70 g/ha: 70 g ai/ha; for pest or weed control at 140 g/ha: 140 g ai/ha
In short: as §1

[3] = barnyardgrass (Echinochloa crus-galli), read-out: Visual Growth Reduction (%) 14 Days After Application ECHCG
[4] = giant foxtail (Setaria faberi), read-out: Visual Growth Reduction (%) 14 Days After Application SETFA
[5] = maize, corn (Zea mays), read-out: Visual Growth Reduction (%) 14 Days After Application ZEAMX
[6] = rice (Oryza sativa), read-out: Visual Growth Reduction (%) 14 Days After Application ORYSA
[7] = wheat, spring (Triticum aestivum), read-out: Visual Growth Reduction (%) 14 Days After Application TRZAS
[8] = yellow nutsedge (Cyperus esculentus), read-out: Visual Growth Reduction (%) 14 Days After Application CYPES
[9] = lambsquarters (Chenopodium album), read-out: Visual Growth Reduction (%) 14 Days After Application CHEAL
[10] = oilseed rape, canola (Brassica napus), read-out: Visual Growth Reduction (%) 14 Days After Application BRSNN
[11] = redroot pigweed (Amaranthus retroflexus), read-out: Visual Growth Reduction (%) 14 Days After Application AMARE
[12] = sunflower (Helianthus annuus), read-out: Visual Growth Reduction (%) 14 Days After Application HELAN
[13] = velvetleaf (Abutilon theophrasti), read-out: Visual Growth Reduction (%) 14 Days After Application ABUTH
[14] = wild poinsettia (Euphorbia heterophylla), read-out: Visual Growth Reduction (%) 14 Days After Application EPHHL

SMILES	pest or weed control at 35 g/ha [1, 3]	pest or weed control at 70 g/ha [1, 3]	pest or weed control at 35 g/ha [1, 4]	pest or weed control at 70 g/ha [1, 4]	pest or weed control at 140 g/ha [1, 4]	pest or weed control at 35 g/ha [1, 5]	pest or weed control at 70 g/ha [1, 5]	pest or weed control at 140 g/ha [1, 5]	pest or weed control at 35 g/ha [1, 6]	pest or weed control at 70 g/ha [1, 6]	pest or weed control at 140 g/ha [1, 6]	pest or weed control at 35 g/ha [1, 7]	pest or weed control at 70 g/ha [1, 7]	pest or weed control at 140 g/ha [1, 7]	pest or weed control at 35 g/ha [1, 8]	pest or weed control at 70 g/ha [1, 8]	pest or weed control at 140 g/ha [1, 8]	pest or weed control at 35 g/ha [2, 9]	pest or weed control at 70 g/ha [2, 9]	pest or weed control at 140 g/ha [2, 9]	other results
COC(=O)c1nc(-c2ccc3c(c2F)OC(F)(F)O3)nc(N)c1Cl [Compound 58]	75 to 84%	85 to 94%	30 to 44%	45 to 59%	45 to 59%	45 to 59%	60 to 74%	75 to 84%	0 to 29%	0 to 29%	0 to 29%	0 to 29%	0 to 29%	0 to 29%	60 to 74%	60 to 74%	60 to 74%	95 to 100%	95 to 100%	95 to 100%	pest or weed control at 140 g/ha [1, 3]: 95 to 100%; pest or weed control at 35 g/ha [2, 10]: 0 to 29%; pest or weed control at 70 g/ha [2, 10]: 0 to 29%; pest or weed control at 140 g/ha [2, 10]: 60 to 74%; pest or weed control at 35 g/ha [2, 11]: 0 to 29%; pest or weed control at 70 g/ha [2, 11]: 45 to 59%; pest or weed control at 140 g/ha [2, 11]: 95 to 100%; pest or weed control at 35 g/ha [2, 12]: 75 to 84%; pest or weed control at 70 g/ha [2, 12]: 75 to 84%; pest or weed control at 140 g/ha [2, 12]: 75 to 84%; pest or weed control at 35 g/ha [2, 13]: 0 to 29%; pest or weed control at 70 g/ha [2, 13]: 0 to 29%; pest or weed control at 140 g/ha [2, 13]: 75 to 84%; pest or weed control at 35 g/ha [2, 14]: 95 to 100%; pest or weed control at 70 g/ha [2, 14]: 95 to 100%; pest or weed control at 140 g/ha [2, 14]: 95 to 100%
Nc1nc(-c2ccc3c(c2F)OC(F)(F)O3)nc(C(=O)O)c1Cl [Compound 59]	75 to 84%	75 to 84%	45 to 59%	60 to 74%	60 to 74%	60 to 74%	60 to 74%	60 to 74%	0 to 29%	0 to 29%	0 to 29%	0 to 29%	0 to 29%	0 to 29%	0 to 29%	0 to 29%	85 to 94%	75 to 84%	85 to 94%	85 to 94%	pest or weed control at 35 g/ha [2, 10]: 60 to 74%; pest or weed control at 70 g/ha [2, 10]: 85 to 94%; pest or weed control at 140 g/ha [2, 10]: 85 to 94%; pest or weed control at 35 g/ha [2, 11]: 45 to 59%; pest or weed control at 70 g/ha [2, 11]: 85 to 94%; pest or weed control at 140 g/ha [2, 11]: 95 to 100%; pest or weed control at 35 g/ha [2, 12]: 60 to 74%; pest or weed control at 70 g/ha [2, 12]: 75 to 84%; pest or weed control at 140 g/ha [2, 12]: 75 to 84%; pest or weed control at 35 g/ha [2, 13]: 0 to 29%; pest or weed control at 70 g/ha [2, 13]: 0 to 29%; pest or weed control at 140 g/ha [2, 13]: 60 to 74%; pest or weed control at 35 g/ha [2, 14]: 95 to 100%; pest or weed control at 70 g/ha [2, 14]: 95 to 100%; pest or weed control at 140 g/ha [2, 14]: 95 to 100%
COC(=O)c1nc(-c2ccc3c(c2)OC(F)(F)O3)nc(N)c1Cl [Compound 60]	60 to 74%	75 to 84%	30 to 44%	60 to 74%	75 to 84%	60 to 74%	75 to 84%	85 to 94%	0 to 29%	0 to 29%	0 to 29%	45 to 59%	60 to 74%	60 to 74%	75 to 84%	85 to 94%	85 to 94%	60 to 74%	75 to 84%	85 to 94%	pest or weed control at 140 g/ha [1, 3]: 85 to 94%; pest or weed control at 35 g/ha [2, 10]: 45 to 59%; pest or weed control at 70 g/ha [2, 10]: 60 to 74%; pest or weed control at 140 g/ha [2, 10]: 60 to 74%; pest or weed control at 35 g/ha [2, 11]: 0 to 29%; pest or weed control at 70 g/ha [2, 11]: 30 to 44%; pest or weed control at 140 g/ha [2, 11]: 45 to 59%; pest or weed control at 35 g/ha [2, 12]: 75 to 84%; pest or weed control at 70 g/ha [2, 12]: 75 to 84%; pest or weed control at 140 g/ha [2, 12]: 75 to 84%; pest or weed control at 35 g/ha [2, 13]: 30 to 44%; pest or weed control at 70 g/ha [2, 13]: 60 to 74%; pest or weed control at 140 g/ha [2, 13]: 75 to 84%; pest or weed control at 35 g/ha [2, 14]: 75 to 84%; pest or weed control at 70 g/ha [2, 14]: 75 to 84%; pest or weed control at 140 g/ha [2, 14]: 85 to 94%
